{"source": "patent US12473534B2", "about": "“Composition for culturing peripheral blood monocyte-derived regulatory t cell and regulatory T cell culturing method using same” (Immunisbio Co., Ltd., priority 2019, dated 2025)", "key": {"[1]": {"test_system": "regulatory T cells derived from peripheral blood mononuclear cells", "experiment": "Culturing of regulatory T cells from peripheral blood mononuclear cells with myricetin or superoxide dismutase, FACS analysis", "assay_type": "cell-based, human", "settings": "for CD4+, CD25+, CD127− (%): flow cytometry; for Total number of cells: start 2.0×10^7 cells, control 20.8", "experimental": "30 mL to 60 mL of human peripheral blood was collected using a 10 mL heparinized vacuum blood collection tube (BD Vacutainer TM). Then, 15 mL of a solution of Ficoll-Paque Plus (endotoxin tested, density 1.077 g/mL, GE Healthcare, USA) was put into a 50 mL lymphocyte separation tube (Leucosep, Greiner Bio-One, Swiss), and the solution was allowed to precipitate down to a glass membrane in the tube by centrifugation at 2000 rpm. The collected blood was transferred to a separation tube and centrifuged at 2500 rpm to separate the erythrocytes and granulocyte layer at the bottom, and the mononuclear cell layer and platelets at the top, thereby separating the blood components. After centrifugation, the plasma in the separated upper layer was inactivated in a water bath at 56° C. for 30 minutes. After centrifugation, the separated lymphocyte layer was collected using a sterilized pipette and collected in a 15 mL tube. After the 15 mL tube with the collected lymphocytes were centrifuged, the supernatant was removed. Cells were washed by adding 10 mL of a buffer solution (PBS) to the lymphocytes from which the supernatant had been removed and suspending the cells. The number of cells was measured from some of the suspension using a hemocytometer, and only lymphocytes were collected by centrifuging again. In this case, the number of harvested lymphocytes was measured to be 20×10^6 cells in total, and the harvested lymphocytes were cultured according to Example 1 below. After the lymphocytes prepared in Experimental Example 1 were taken, the lymphocytes were cultured in a T-flask (SPL Life Sciences) containing a culture solution and 0.2 to 2 mL of plasma in a 5% CO2 incubator at 37° C. for 4 to 14 days. Furthermore, in order to induce a reaction with an activation receptor present on the cell surface of regulatory T cells, 0.001 to 0.03 of one or more antibodies selected from the group consisting of anti-CD2, anti-CD3, anti-CD7, anti-CD8, anti-CD28, anti-CD30L, anti-CD40, anti-CD70, anti-CD80, anti-CD83 and anti-CD86; one or more cytokines selected from the group consisting of interleukin-2, interleukin-4, interleukin-7, interleukin-12, interleukin-15, interleukin-34 and TGF-β; 0 to 250 μM of myricetin; and 0 to 50 μM of superoxide dismutase were administered. That is, lymphocytes measured to be a total number of 2.0×10^7 cells were added to 5 to 100 mL of KBM502 medium including the above-described plasma, antibodies, cytokines, myricetin and superoxide dismutase, and cultured in a CO2 incubator for 4 to 14 days. To confirm the differentiation of regulatory T cells, staining was performed with an anti-human antibody or mouse isotype antibody (BD-Pharmingen San Jose, USA) under a condition of CD4+, CD25+ and CD127−, which are surface proteins of regulatory T cells, measured by flow cytometry, and then analyzed using BD Accuri C6 Plus."}, "[2]": {"test_system": "regulatory T cells derived from peripheral blood mononuclear cells after removal of CD8+ cells", "experiment": "Culturing of regulatory T cells with myricetin and superoxide dismutase only or in combination after removal of CD8, FACS analysis", "assay_type": "cell-based, human", "settings": "for Total number of cells: control 18.2", "experimental": "After the lymphocytes prepared in Experimental Example 1 were taken, the lymphocytes were cultured in a T-flask (SPL Life Sciences) containing a culture solution and 0.2 to 2 mL of plasma in a 5% CO2 incubator at 37° C. for 4 to 14 days. Furthermore, in order to induce a reaction with an activation receptor present on the cell surface of regulatory T cells, 0.001 to 0.03 of one or more antibodies selected from the group consisting of anti-CD2, anti-CD3, anti-CD7, anti-CD8, anti-CD28, anti-CD30L, anti-CD40, anti-CD70, anti-CD80, anti-CD83 and anti-CD86; one or more cytokines selected from the group consisting of interleukin-2, interleukin-4, interleukin-7, interleukin-12, interleukin-15, interleukin-34 and TGF-β; 0 to 250 μM of myricetin; and 0 to 50 μM of superoxide dismutase were administered. That is, lymphocytes measured to be a total number of 2.0×10^7 cells were added to 5 to 100 mL of KBM502 medium including the above-described plasma, antibodies, cytokines, myricetin and superoxide dismutase, and cultured in a CO2 incubator for 4 to 14 days. After peripheral blood mononuclear cells were separated, the cells were suspended in MACS buffer from Miltenyi Biotec and reacted with Human CD8 MicroBeads, and then CD8+ cells were removed using an LD column in a QuadroMACS Separator. Then, the cells were cultured using the same culturing method as in Example 1, and treated with myricetin and superoxide dismutase by selecting the treatment concentration having the highest regulatory T cell distribution in Example 1. To confirm the differentiation of regulatory T cells, staining was performed with an anti-human antibody or mouse isotype antibody (BD-Pharmingen San Jose, USA) under a condition of CD4+, CD25+ and CD127−, which are surface proteins of regulatory T cells, measured by flow cytometry, and then analyzed using BD Accuri C6 Plus."}, "[3]": {"settings": "Day 0, after removal of CD8, flow cytometry"}, "[4]": {"settings": "Day 7 of culture, after removal of CD8"}, "[5]": {"settings": "Day 7 of culture, after removal of CD8, control 92.3"}}, "data": [{"compound": "O=c1c(O)c(-c2cc(O)c(O)c(O)c2)oc2cc(O)cc(O)c12", "note": "[M3, myricetin]", "values": [{"measurement": "CD4+, CD25+, CD127− (%)", "setting": "[1]; Day 0, before culture", "result": 2.1, "unit": "%"}, {"measurement": "CD4+, CD25+, CD127− (%)", "setting": "[1]; Day 7 of culture, control 18.0", "result": 24.7, "unit": "%"}, {"measurement": "Total number of cells", "setting": "[1]; Day 7 of culture", "result": "28.6 ×10^7 cells"}, {"measurement": "CD4+, CD25+, CD127− (%)", "setting": "[2]; [3]", "result": 0.4, "unit": "%"}, {"measurement": "Total number of cells", "setting": "[2]; [4]", "result": "20.8 ×10^7 cells"}, {"measurement": "CD4+, CD25+, CD127− (%)", "setting": "[2]; [5]", "result": 97.6, "unit": "%"}]}, {"compound": "superoxide dismutase [S2]", "values": [{"measurement": "CD4+, CD25+, CD127− (%)", "setting": "[1]; Day 0, before culture", "result": 1.2, "unit": "%"}, {"measurement": "CD4+, CD25+, CD127− (%)", "setting": "[1]; Day 7 of culture, control 18.0", "result": 37.1, "unit": "%"}, {"measurement": "Total number of cells", "setting": "[1]; Day 7 of culture", "result": "25.2 ×10^7 cells"}]}, {"compound": "O=c1c(O)c(-c2cc(O)c(O)c(O)c2)oc2cc(O)cc(O)c12", "note": "[M2, myricetin]", "values": [{"measurement": "CD4+, CD25+, CD127− (%)", "setting": "[1]; Day 0, before culture", "result": 2.1, "unit": "%"}, {"measurement": "CD4+, CD25+, CD127− (%)", "setting": "[1]; Day 7 of culture, control 18.0", "result": 22.9, "unit": "%"}, {"measurement": "Total number of cells", "setting": "[1]; Day 7 of culture", "result": "26.7 ×10^7 cells"}]}, {"compound": "superoxide dismutase [S3]", "values": [{"measurement": "CD4+, CD25+, CD127− (%)", "setting": "[1]; Day 0, before culture", "result": 1.2, "unit": "%"}, {"measurement": "CD4+, CD25+, CD127− (%)", "setting": "[1]; Day 7 of culture, control 18.0", "result": 36.0, "unit": "%"}, {"measurement": "Total number of cells", "setting": "[1]; Day 7 of culture", "result": "24.4 ×10^7 cells"}]}, {"compound": "superoxide dismutase [S1]", "values": [{"measurement": "CD4+, CD25+, CD127− (%)", "setting": "[1]; Day 0, before culture", "result": 1.2, "unit": "%"}, {"measurement": "CD4+, CD25+, CD127− (%)", "setting": "[1]; Day 7 of culture, control 18.0", "result": 37.4, "unit": "%"}, {"measurement": "Total number of cells", "setting": "[1]; Day 7 of culture", "result": "22.5 ×10^7 cells"}, {"measurement": "CD4+, CD25+, CD127− (%)", "setting": "[2]; [3]", "result": 0.7, "unit": "%"}, {"measurement": "Total number of cells", "setting": "[2]; [4]", "result": "21.5 ×10^7 cells"}, {"measurement": "CD4+, CD25+, CD127− (%)", "setting": "[2]; [5]", "result": 97.6, "unit": "%"}]}, {"compound": "O=c1c(O)c(-c2cc(O)c(O)c(O)c2)oc2cc(O)cc(O)c12", "note": "[M1, myricetin]", "values": [{"measurement": "CD4+, CD25+, CD127− (%)", "setting": "[1]; Day 0, before culture", "result": 2.1, "unit": "%"}, {"measurement": "CD4+, CD25+, CD127− (%)", "setting": "[1]; Day 7 of culture, control 18.0", "result": 22.4, "unit": "%"}, {"measurement": "Total number of cells", "setting": "[1]; Day 7 of culture", "result": "26.8 ×10^7 cells"}]}, {"compound": "O=c1c(O)c(-c2cc(O)c(O)c(O)c2)oc2cc(O)cc(O)c12", "note": "[M4, myricetin]", "values": [{"measurement": "CD4+, CD25+, CD127− (%)", "setting": "[1]; Day 0, before culture", "result": 2.1, "unit": "%"}, {"measurement": "CD4+, CD25+, CD127− (%)", "setting": "[1]; Day 7 of culture, control 18.0", "result": 23.3, "unit": "%"}, {"measurement": "Total number of cells", "setting": "[1]; Day 7 of culture", "result": "25.6 ×10^7 cells"}]}]}
